The values that follow come from patent US9617263B2, “Phenyl-triazolo-pyridine compounds” (Eli Lilly and Company, priority 2014, dated 2017).

The structures appear in SMILES notation. pEC50, pKi: −log10 of the molar value.

For one assay, the target named is T1, human GPR40 (hGPR40) (Homo sapiens, UniProt O14842).
T1 construct: expressed in transfected cells; host or cells: HEK293 (membranes)
Briefly: Radioligand competition binding with [3H]TAK-875, HEK293 membranes. To be noted: 5 nM [3H]TAK-875; Cheng-Prusoff; Mean±SEM. The source says: Competition curves are plotted as the percent specific inhibition versus concentration of compound and analyzed using a four parameter nonlinear regression fit with variable slope. […] See Cheng, Y. and Prusoff, W. H. (1973) “Relationship between the inhibition constant (Ki) and the concentration of inhibitor which causes 50 percent inhibition (IC50) of an enzymatic reaction,” Biochem Pharmacol 22(23):3099-3108. (Mean±SEM; SEM=standard error of the mean.).
(In general: In a radioligand displacement assay an active substance lowers the binding of a labelled ligand.)

For assay [1], the target named is T2, hGPR40 (Homo sapiens, UniProt O14842). Put plainly: Human beta-arrestin agonist assay with 1% FBS (PathHunter, hEK293-hFFAR1). In kind it is cell-based. More on the design: host or cells: HEK293 (hEK293-hFFAR1 PathHunter cells). The source says: Human embryonic kidney (hEK293)-hFFAR1 cells are purchased from DiscoveRx. Human osteosarcoma (U2OS) cells expressing mFFAR1 are developed by DiscoveRX. These cells co-express the Prolink (PK)-tagged GPR40 and the Enzyme Acceptor (EA)-tagged beta-arrestin fusion proteins. If activation of the GPR40 stimulates beta-arrestin recruitment, it would force complementation of the beta galactosidase (B-gal) enzyme fragments, forming a B-gal enzyme that generates a chemiluminescent signal using the DiscoveRx PathHunter detection kit. Cells are incubated overnight at 5,000 cells/well in 384 well plates in culture media containing 1% FBS (fetal bovine serum). Serial diluted compounds in DMSO (2× dilutions to generate 20 concentrations) are step down diluted in culture media containing 1% FBS (fetal bovine serum) and added to cells with a final top concentration starting of 100 μM. After addition of compounds, cells are incubated for 90 min at 37° C. in 5% CO2 incubator, and DiscoveRX kit detection reagents are added. Measurement of the chemiluminescent signal is ascertained with the Envision reader, after a 1-hour incubation at room temperature. Data are fit to a 4 parameter-fit logistics to determine EC50 values; % activity is measured versus maximum response to TAK875 at 1 μM.
Target sequence in this assay (O14842 whole entry, the tested form may be a part): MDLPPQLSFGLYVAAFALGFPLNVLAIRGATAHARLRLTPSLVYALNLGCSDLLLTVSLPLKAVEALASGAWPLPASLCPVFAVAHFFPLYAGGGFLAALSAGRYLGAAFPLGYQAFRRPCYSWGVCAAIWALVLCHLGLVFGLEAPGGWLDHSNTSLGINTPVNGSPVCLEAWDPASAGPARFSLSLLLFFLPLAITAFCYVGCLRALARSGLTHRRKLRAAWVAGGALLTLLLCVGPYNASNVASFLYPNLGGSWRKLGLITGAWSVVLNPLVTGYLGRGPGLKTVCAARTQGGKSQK
Target sequence in this assay (P32121 whole entry partner, the tested form may be a part): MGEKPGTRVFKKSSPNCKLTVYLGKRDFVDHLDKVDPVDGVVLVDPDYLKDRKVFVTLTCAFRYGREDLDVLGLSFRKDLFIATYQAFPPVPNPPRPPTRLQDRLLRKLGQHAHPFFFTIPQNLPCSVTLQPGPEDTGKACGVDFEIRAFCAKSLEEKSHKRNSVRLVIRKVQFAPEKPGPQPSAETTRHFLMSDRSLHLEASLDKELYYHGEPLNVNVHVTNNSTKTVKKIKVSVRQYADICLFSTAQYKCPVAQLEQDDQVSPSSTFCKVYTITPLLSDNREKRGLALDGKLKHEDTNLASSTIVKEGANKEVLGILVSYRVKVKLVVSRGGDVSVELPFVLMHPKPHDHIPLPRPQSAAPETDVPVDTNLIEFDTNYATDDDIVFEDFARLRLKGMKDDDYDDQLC

The next assay deals with Zucker fa/fa rats. Put plainly: Acute oral glucose tolerance test (OGTT). In kind it is in vivo, rat. The method, then: OGTTs are performed in Zucker fa/fa rats, a rodent model of insulin resistance, after 1 and 21 days of orally administered material at 1.0, 3.0 and 10 mg/kg. TAK875 at 1 mg/kg served as the positive control. The OGTTs are performed one hour post compound administration with blood samples taken for determination of glucose and insulin levels at 10, 20, 40, 60, and 120 minutes post glucose administration.

The subject of another assay is Male Balb/c mice. Briefly: Intraperitoneal glucose tolerance test (IPGTT). In kind it is in vivo, mouse. The method, then: To examine the ability of Examples 1 to 20 to activate GPR40 in-vivo resulting in desired glucose lowering efficacy, i.e. reduction in plasma glucose levels, an intraperitoneal glucose tolerance test (ipGTT) study is completed, and the data is shown for the compound tested below.
Male Balb/c (Albino mice) mice (8-9 weeks of age) are single housed, and fed with normal rodent chow diet and water ad libitum. Animals are weighed; randomized by body weight; and their daily body weights are recorded. Animals are dosed daily using a formulation carrying methylcellulose and tween-80. On the night before the study, animals are fasted. In the morning, animals are dosed orally with compound or vehicle alone 60 minutes prior to the glucose tolerance test (glucose 2 g/kg, i.p.). Blood glucose levels are determined from tail bleeds taken at 0, 3, 7, 15, 30, and 60 min after glucose challenge. […] Percent lowering in glucose is calculated from the AUC data of the compound with respect to the AUC of vehicle group. The test compound is orally administered at 0.3, 1.0, 3.0, 10, 30, or 100 mg/kg, and a positive control (3-[4-(2-methyl-benzyloxy)-phenyl]-hex-4-ynoic acid, see WO2005086661 (TAK875).) is administered at 10 mg/kg. […] Glucose levels are lowered at the 30, and 60 minute time points for the positive control.

The target in assay [2] is T2, hGPR40. Put plainly: Calcium Flux Primary Assay (FLIPR, Calcium 4 Dye). In kind it is cell-based. More on the design: expressed in transfected cells; host or cells: HEK293. The following applies: HEK293 cells over expressing human GPR40; Mean±SEM. The method, then: HEK293 cells over expressing the human GPR40 cDNA maintained in Dulbecco's modified Eagle's medium with F12 medium in 3:1 ratio supplemented with 10% FBS and 800 μg/ml geneticin at 37° C. and 5% CO2 are employed for the study. Agonist assays are performed using a Calcium 4 Dye assay kit (Molecular Devices) in the presence or absence of 0.1% fatty acid free BSA in the assay buffer (1×HBSS (Hank's Balanced Salt Solution) & 20 mM HEPES (4-(2-hydroxyethyl)-1-piperazineethanesulfonic acid). Receptor activation is measured as an increase in intracellular calcium using the Fluorometric Imaging Plate Reader (FLIPR). Maximum change in fluorescence over the base line is used to determine the agonist response. The EC50 value of the compound is calculated using Excel Fit software (version 4; IDBS) by plotting concentration vs relative fluorescence units (RFUs).
Target sequence in this assay (O14842 whole entry, the tested form may be a part): as the sequence (O14842 whole entry, the tested form may be a part) above
On the technique in general: Calcium assays in cells follow changes in intracellular calcium, usually with a dye or a luminescent sensor.

T1 sequence (O14842 whole entry): as the sequence (O14842 whole entry, the tested form may be a part) above

As a reminder, the pKi is the Ki on a negative log10 scale, so that one unit is a factor of ten. A lower pKi goes with a large Ki. The term pEC50 denotes the EC50 on a negative log10 scale, so that one unit is a factor of ten. In general, ED50 refers to the dose at which the effect has come halfway, by size or by number of responders. The compound `CC#C[C@@H](CC(=O)O)c1ccc(OCc2cc(-c3ccccc3C)cn3ncnc23)cc1` [Example 1, (S)-3-[4-(6-o-Tolyl-[1,2,4]triazolo[1,5-a]pyridin-8-ylmethoxy)-phenyl]-hex-4-ynoic acid] gave a pKi on human GPR40 (hGPR40) of 7.61. Also, the pEC50 at hGPR40 [1] (1% FBS, 90 min, read-out: hGPR40 b-arrestin EC50) is 7.32; on hGPR40 [2] it was 6.84. Besides, the “hGPR40 b-arrestin % stimulation max (FA)” value on hGPR40 [1] (versus maximum response to TAK875 at 1 μM) came out at 163%. The “ED90 for glucose lowering” value in the assay on Zucker fa/fa rats (oral) is given as 3.3 mg/kg. The “Insulin AUCs during the OGTTs” value in the assay with Zucker fa/fa rats (oral 1, 3, 10 mg/kg, values not statistically significant) is recorded as “dose dependent elevation”. In addition, the “AUCs for glucose lowering” value with Zucker fa/fa rats (oral, Example 1 at 1, 3 and 10 mg/kg, TAK875 at 1 mg/kg, p<0.05) is on record as “statistically significant”. The “Glucose levels compared to vehicle control” value with Male Balb/c mice (30 and 60 minute time points, Example 1 at 10, 30, 100 mg/kg oral, positive control 10 mg/kg) was “significantly lowered”. In addition, in the assay with Male Balb/c mice (Mus musculus, oral, 60 min before glucose 2 g/kg i.p., read-out: ED50 based on AUCs for glucose lowering), the ED50 was found to be 7.9 mg/kg.
